Experimental data reported in patent publication US20110281815A1, “Parental formulations of gemcitabine derivatives” (CLAVIS PHARMA AS, priority 2009, published 2011).
Each block holds one compound with its values, some of them ahead of it.

Columns and labels:
[1] = formulation of elacytarabine model substance with egg PC/egg PG; assay type: physicochemical
Description: (§1) It was investigated if the unexpectedly high concentration (15 mg/mL-60 mg/mL) of the active compound achieved in the formulations described in Examples 1 through 7, and under section 6, Manufacture of the Formulation, was unique to a chemical compound as shown in Formula (I) or if the method was of a more general nature. The structurally similar compound elacytarabine (ara-C-5′-elaidic acid ester) as shown in Formula (II) was used as a related model substance. This model substance contains the same 5′-elaidic acid ester moiety as found in Formula (I) (R1=R3=H, R2=elaidate), and the same cytosine nucleoside ring system. The minor difference between the compounds described in Formula (I) and Formula (II) is the substitution at the 2′ position of the ribose ring for Formula (I) contains geminal fluorines, while Formula (II) contains H and OH.
It is concluded that the Formula I compound provides unexpectedly unique attributes of high loading and stability to the described lipid based formulations.

[2] = rapid deamination to dFdU; cited from earlier work
[3] = buffer, pH 7.4
[4] = human, in vivo
Description: (§2) The intravenous formulation of gemcitabine-5′-elaidic acid ester as described in Example 1 was used in a phase I, first in human clinical study. The aims of this study were to determine the safety, toxicity, MTD (Maximum Tolerated Dose) and the RD (Recommended Dose) of gemcitabine-5′-elaidic acid ester, to describe its pharmacokinetic (PK) characteristics, and to assess its preliminary antitumor activity.
(§3) Gemcitabine-5′-elaidic acid ester was administered on days (d) 1, 8 and 15 every 4 week by a 30 min IV infusion. The dose range was from 30 to 1600 mg/m2/d. 43 patients were enrolled and the RD was established at 1250 mg/m^2/d. […] Stabilisation of disease (>3 months) reported in 7 patients (pancreas, colon and ovarian cancer) lasting between 3.5 to >8 months.

[5] = human, in vivo; remark: listed apart in the source
Description: as §2, §3
Gemcitabine-5′-elaidic acid ester was detected in plasma up to 24 hrs post-dosing. […] Urinary excretion of the main metabolite, dFdU, during the first 24 hrs was 48-71% of the dose.

[6] = test system: pancreas, colon and ovarian cancer; test: phase I clinical study: preliminary antitumor activity; assay type: in vivo, human
Description: as §2, §3

[7] = drug load / particle formation of gemcitabine-5′-elaidate in alternative formulations; assay type: physicochemical
Description: Particle formation without the use of phospholipids was not successful. Gemcitabine-5′-elaidic acid ester was dissolved in ethanol in a weight ratio of 1:24. The mixture was stirred until all solid material was dissolved.
The ethanol solution was thereafter injected into a […] with vigorous mixing. The weight ratio of ethanol solution to the glycerol solution was 1:12. The mixture appeared to contain conglomerates as determined by visual inspection.
Mixed micellar formulations with phospholipids and non-ionic surfactants were not successful in preparation of high drug load formulations. Mixed micelles were prepared using a 1:1 weight ratio of egg lecithin:Tween 20 for a final concentration of 50 mg/mL dissolved solids.
Liposomal formulations with egg lecithin and oleic acid were not successful in preparation of high drug load formulations. Liposomes were prepared by means of dissolution of gemcitabine-5′-elaidate, egg lecithin, and oleic acid in a molar ratio of 1:14.4:2 in ethanol. The solvent was evaporated and the residual solids dispersed into 2.6% glycerol in water using an Ultraturrax followed by high pressure homogenization. Stable formulations could be achieved up to 3 mg/mL gemcitabine-5′-elaidate.
as §1

Particle size (Z-.avg) ([1]; Egg PC/egg PG, 10 mg/mL): (Z-.avg) 97 nm
outcome after filtration ([1]; Egg PC/egg PG, 10 mg/mL): Large lipid agglomerates
outcome upon storage ([1]; Egg PC/egg PG, 15 mg/mL, storage at 2-8° C.): Precipitation
Final content ([1]; Egg PC/egg PG, elacytarabine concentration 10 mg/mL): Final content 8 mg/ml.
Final content ([1]; Egg PC/egg PG, elacytarabine concentration 15 mg/mL): 12 mg/mL
formulation outcome ([1]; Egg PC/egg PG, elacytarabine concentration 20 mg/mL, during homogenisation): Precipitation during
formulation outcome ([1]; Egg PC/egg PG, elacytarabine concentration 30 mg/mL, during solvent injection): Precipitation
formulation outcome ([1]; Formula II compound included in excess of 20 mg/mL): precipitation during processing
formulation outcome on storage ([1]; target concentrations of less than 15 mg/mL, precipitation and agglomeration): unstable during storage
SMILES: CCCCCCCC/C=C/CCCCCCCC(=O)OC[C@H]1O[C@@H](n2ccc(N)nc2=O)[C@@H](O)[C@@H]1O [Elacytarabine, ara-C-5′-elaidic acid ester]

SMILES: Nc1ccn([C@@H]2O[C@H](CO)[C@@H](O)C2(F)F)c(=O)n1 [gemcitabine, 2′,2′-difluorodeoxy-cytidine]
half-life of gemcitabine in plasma [2]: approximately 10 minutes

SMILES: CCCCCCCC/C=C/CCCCCCCC(=O)OC[C@H]1O[C@@H](n2ccc(N)nc2=O)C(F)(F)[C@@H]1O [gemcitabine-5′-elaidic acid ester]
half life (hydrolytic degradation) [3]: approximately 30 minutes
most frequent toxicities [4]: nausea, fatigue, vomiting and anorexia
RD (Recommended Dose) ([4]; iv): 1250 mg/m^2/d
recommended dose for intravenous administration ([4]; iv): 1250 mg/m^2
AUC for gemcitabine (dFdC) exposure versus intravenous gemcitabine at comparable dose levels [5]: significantly higher
time detected in plasma post-dosing ([5]; iv): up to 24 hrs
stabilisation of disease (>3 months), number of patients ([6]; 43 patients enrolled, pancreas, colon and ovarian cancer): 7 patients
reduction in tumor mass ([6]; one patient with ovarian cancer): 28.3%
maximal concentration of gemcitabine-5′-elaidate in mixed micelles ([7]; 1:1 egg lecithin:Tween 20, 50 mg/mL dissolved solids): less than 5 mg/mL
concentration up to which stable liposomal formulations could be achieved ([7]; egg lecithin and oleic acid liposomes, 2.6% glycerol in water): up to 3 mg/mL
maximal concentration of gemcitabine-5′-elaidate in mixed micelles ([7]; egg lecithin with glycholic acid as surfactant): 2 mg/mL
particle formation without phospholipids ([7]; ethanol solution injected into water for injection, homogenization attempted): not capable of forming stable particles
